Starred links: 1 amine or outer side, 2 acyl side, 3 side chain; linkers in the order of their positions; H or OH if unused. Positions of bridges follow the written chain, without caps; N, C: chain ends. Non-standard residues stand in square brackets, D forms with d. Residues, ends and D or L forms follow the SMILES beside them. Groups on a side chain read outwards from the residue. *: point of attachment. εLys(α-Octadecanedioyl) = O=C(O)CCCCCCCCCCCCCCCCC(=O)N[C@@H](CCCCN*)C(=O)O; X4 = O=C(O)CCCCCCCCCCCCCCC(=O)NC[C@H](NC(=O)CCCCCCCCCCCCCCC(=O)O)C(=O)*; X6 = C[N+](C)(CCNC(=O)CCCCCCCCCCCCCCCCC(=O)O)CC(=O)*; Trp(7-Me) = Cc1cccc2c(C[C@H](N)C(=O)O)c[nH]c12; C20 diacid = O=C(O)CCCCCCCCCCCCCCCCCCC(=O)*; C18 diacid = O=C(O)CCCCCCCCCCCCCCCCC(=O)*; γGlu = O=C(O)[C@H](CCC(=O)[*:2])N[*:1]; 2Nal = N[C@@H](Cc1ccc2ccccc2c1)C(=O)O; AEF = NCCOc1ccc(C[C@H](N)C(=O)O)cc1; PEG6 = NCCOCCOCCOCCOCCOCCOCCC(=O)O; Palmitoyl = CCCCCCCCCCCCCCCC(=O)*; Trx = NC[C@H]1CC[C@H](C(=O)O)CC1; 3Pal = N[C@@H](Cc1cccnc1)C(=O)O; Pen = CC(C)(S)[C@H](N)C(=O)O; Thp = NC1(C(=O)O)CCOCC1; AEEA = NCCOCCOCC(=O)O; Sar = CNCC(=O)O
Each compound was assayed against T1, IL-23R (Homo sapiens, UniProt Q5VWK5) (assay: IL23R Reporter Assay).
T1 construct: HEK293 cells containing IL-23R, IL-12RP31 and a firefly luciferase reporter gene driven by a STAT-inducible promoter (Promega); host or cells: HEK293
T1 sequence (Q5VWK5 24-629): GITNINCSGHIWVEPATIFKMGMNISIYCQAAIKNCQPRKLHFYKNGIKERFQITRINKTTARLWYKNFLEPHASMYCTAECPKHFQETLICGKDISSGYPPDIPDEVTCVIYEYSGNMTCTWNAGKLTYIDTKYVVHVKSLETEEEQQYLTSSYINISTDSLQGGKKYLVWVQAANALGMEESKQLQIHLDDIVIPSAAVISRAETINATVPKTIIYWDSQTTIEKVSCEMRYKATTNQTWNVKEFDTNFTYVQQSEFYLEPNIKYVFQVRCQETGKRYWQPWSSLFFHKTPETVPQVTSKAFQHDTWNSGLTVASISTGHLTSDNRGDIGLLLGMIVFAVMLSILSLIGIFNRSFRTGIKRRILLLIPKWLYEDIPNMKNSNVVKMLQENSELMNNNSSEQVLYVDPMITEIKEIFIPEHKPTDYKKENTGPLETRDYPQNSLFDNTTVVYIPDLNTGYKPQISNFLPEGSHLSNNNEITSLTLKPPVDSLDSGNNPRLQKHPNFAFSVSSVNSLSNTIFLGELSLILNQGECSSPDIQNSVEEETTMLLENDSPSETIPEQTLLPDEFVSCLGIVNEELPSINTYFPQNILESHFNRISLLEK
Type: cell-based
Method in brief: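 Luminescence from BioGlo, read after cells were moved to 20 °C, followed a 5 h incubation at 37 °C, 5% CO2 with DMSO-diluted test compounds.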

| SMILES | IC50 |
| --- | --- |
| CC(=O)NCCCC[C@@H]1NC(=O)[C@H](Cc2c[nH]c3c(C)cccc23)NC(=O)[C@H]([C@@H](C)O)NC(=O)[C@H](CC(N)=O)NC(=O)[C@@H](NC(C)=O)C(C)(C)SSC(C)(C)[C@@H](C(=O)N[C@@H](Cc2ccc(OCCN)cc2)C(=O)N[C@@H](Cc2ccc3ccccc3c2)C(=O)NC2(C(=O)N[C@@H](CCCCNC(=O)COCCOCCNC(=O)COCCOCCNC(=O)CCCCCCCCCCCCCCCCC(=O)O)C(=O)N[C@@H](CC(N)=O)C(=O)N[C@@H](Cc3cccnc3)C(=O)N(C)CC(N)=O)CCOCC2)NC1=O [Example 41, MeCO-Pen*-N-T-7MeW-K(Ac)-Pen*-AEF-2Nal-THP-K(PEG2PEG2C18OH)-N-3Pya-Sar-CONH2] (Ac-[Pen]NT[Trp(7-Me)]K(Ac)[Pen][AEF][2Nal][Thp]K([AEEA-AEEA-C18 diacid])N[3Pal][Sar]-NH2; disulfide 1-6) | 0.078 nM |
| CC(=O)NCCCC[C@@H]1NC(=O)[C@H](Cc2c[nH]c3c(C)cccc23)NC(=O)[C@H]([C@@H](C)O)NC(=O)[C@H](CC(N)=O)NC(=O)[C@@H](NC(C)=O)C(C)(C)SSC(C)(C)[C@@H](C(=O)N[C@@H](Cc2ccc(OCCN)cc2)C(=O)N[C@@H](Cc2ccc3ccccc3c2)C(=O)NC2(C(=O)N[C@@H](CCCCNC(=O)COCCOCCNC(=O)CC[C@H](NC(=O)CCCCCCCCCCCCCCCCC(=O)O)C(=O)O)C(=O)N[C@@H](CC(N)=O)C(=O)N[C@@H](Cc3cccnc3)C(=O)N(C)CC(N)=O)CCOCC2)NC1=O [Example 35, MeCO-Pen*-N-T-7MeW-K(Ac)-Pen*-AEF-2Nal-THP-K(PEG2gEC18OH)-N-3Pya-Sar-CONH2] (Ac-[Pen]NT[Trp(7-Me)]K(Ac)[Pen][AEF][2Nal][Thp]K([AEEA-γGlu-C18 diacid])N[3Pal][Sar]-NH2; disulfide 1-6) | 0.19 nM |
| CC(=O)NCCCC[C@@H]1NC(=O)[C@H](Cc2c[nH]c3c(C)cccc23)NC(=O)[C@H]([C@@H](C)O)NC(=O)[C@H](CC(N)=O)NC(=O)[C@@H](NC(C)=O)C(C)(C)SSC(C)(C)[C@@H](C(=O)N[C@@H](Cc2ccc(OCCN)cc2)C(=O)N[C@@H](Cc2ccc3ccccc3c2)C(=O)NC2(C(=O)N[C@@H](CCCCNC(=O)COCCOCCNC(=O)COCCOCCNC(=O)CC[C@H](NC(=O)C[N+](C)(C)CCNC(=O)CCCCCCCCCCCCCCCCC(=O)O)C(=O)O)C(=O)N[C@@H](CC(N)=O)C(=O)N[C@@H](Cc3cccnc3)C(=O)N(C)CC(N)=O)CCOCC2)NC1=O [Example 123, MeCO-Pen*-N-T-7MeW-K(Ac)-Pen*-AEF-2Nal-THP-K(PEG2PEG2 gE SP6 C18OH)-N-3Pya-Sar-CONH2] (Ac-[Pen]NT[Trp(7-Me)]K(Ac)[Pen][AEF][2Nal][Thp]K([AEEA-AEEA-γGlu-X6])N[3Pal][Sar]-NH2; disulfide 1-6) | 0.073 nM |
| CC(=O)NCCCC[C@@H]1NC(=O)[C@H](Cc2c[nH]c3c(C)cccc23)NC(=O)[C@H]([C@@H](C)O)NC(=O)[C@H](CC(N)=O)NC(=O)[C@@H](NC(C)=O)C(C)(C)SSC(C)(C)[C@@H](C(=O)N[C@@H](Cc2ccc(OCCN)cc2)C(=O)N[C@@H](Cc2ccc3ccccc3c2)C(=O)NC2(C(=O)N[C@@H](CCCCNC(C)=O)C(=O)N[C@@H](CC(N)=O)C(=O)N[C@@H](Cc3cccnc3)C(=O)N(C)CC(=O)NCCOCCOCC(=O)NCCOCCOCC(=O)NCCCC[C@H](NC(=O)CCCCCCCCCCCCCCCCC(=O)O)C(=O)O)CCOCC2)NC1=O [Example 46, MeCO-Pen*-N-T-7MeW-K(Ac)-Pen*-AEF-2Nal-THP-K(Ac)-N-3Pya-Sar-PEG2PEG2eKC18OH-COOH] (Ac-[Pen]NT[Trp(7-Me)]K(Ac)[Pen][AEF][2Nal][Thp]K(Ac)N[3Pal][Sar][AEEA][AEEA]-{εLys(α-Octadecanedioyl)}; disulfide 1-6) | 0.26 nM |
| CC(=O)NCCCC[C@@H]1NC(=O)[C@H](Cc2c[nH]c3c(C)cccc23)NC(=O)[C@H]([C@@H](C)O)NC(=O)[C@H](CCCCNC(=O)COCCOCCNC(=O)COCCOCCNC(=O)[C@@H]2CCCN2C(=O)[C@@H]2CCCN2C(=O)[C@@H]2CCCN2C(=O)CC[C@H](NC(=O)CCCCCCCCCCCCCCCCC(=O)O)C(=O)O)NC(=O)[C@@H](NC(=O)[C@@H](CCCNC(=N)N)NC(C)=O)C(C)(C)SSC(C)(C)[C@@H](C(=O)N[C@@H](Cc2ccc(OCCN)cc2)C(=O)N[C@@H](Cc2ccc3ccccc3c2)C(=O)NC2(C(=O)N[C@@H](CCCCNC(C)=O)C(=O)N[C@@H](CC(N)=O)C(=O)N[C@@H](Cc3cccnc3)C(=O)N(C)CC(N)=O)CCOCC2)NC1=O [Example 99, MeCO-r-Pen*-K(PEG2PEG2PPPgEC18OH)-T-7MeW-K(Ac)-Pen*-AEF-2Nal-THP-K(Ac)-N-3Pya-Sar-CONH2] (Ac-[dR][Pen]K([AEEA-AEEA-Pro-Pro-Pro-γGlu-C18 diacid])T[Trp(7-Me)]K(Ac)[Pen][AEF][2Nal][Thp]K(Ac)N[3Pal][Sar]-NH2; disulfide 2-7) | 0.096 nM |
| CCCCCCCCCCCCCCCC(=O)N[C@@H](CCC(=O)NCCOCCOCC(=O)NCCOCCOCC(=O)NCCCC[C@@H]1NC(=O)[C@@H](NC(C)=O)C(C)(C)SSC(C)(C)[C@@H](C(=O)N[C@@H](Cc2ccc(OCCN)cc2)C(=O)N[C@@H](Cc2ccc3ccccc3c2)C(=O)NC2(C(=O)N[C@@H](CCCCNC(C)=O)C(=O)N[C@@H](CC(N)=O)C(=O)N[C@@H](Cc3cccnc3)C(=O)N(C)CC(N)=O)CCOCC2)NC(=O)[C@H](CCCCNC(C)=O)NC(=O)[C@H](Cc2c[nH]c3c(C)cccc23)NC(=O)[C@H]([C@@H](C)O)NC1=O)C(=O)O [Example 83, MeCO-Pen*-K(PEG2PEG2gEC16)-T-7MeW-K(Ac)-Pen*-AEF-2Nal-THP-K(Ac)-N-3Pya-Sar-CONH2] (Ac-[Pen]K([AEEA-AEEA-γGlu-Palmitoyl])T[Trp(7-Me)]K(Ac)[Pen][AEF][2Nal][Thp]K(Ac)N[3Pal][Sar]-NH2; disulfide 1-6) | 0.052 nM |
| CC(=O)NCCCC[C@@H]1NC(=O)[C@H](Cc2c[nH]c3c(C)cccc23)NC(=O)[C@H]([C@@H](C)O)NC(=O)[C@H](CC(N)=O)NC(=O)[C@@H](NC(C)=O)C(C)(C)SSC(C)(C)[C@@H](C(=O)N[C@@H](Cc2ccc(OCCN)cc2)C(=O)N[C@@H](Cc2ccc3ccccc3c2)C(=O)NC2(C(=O)N[C@@H](CCCCNC(=O)COCCOCCNC(=O)COCCOCCNC(=O)CC[C@H](NC(=O)[C@H]3CC[C@H](CNC(=O)CCCCCCCCCCCCCCCCCCC(=O)O)CC3)C(=O)O)C(=O)N[C@@H](CC(N)=O)C(=O)N[C@@H](Cc3cccnc3)C(=O)N(C)CC(N)=O)CCOCC2)NC1=O [Example 128, MeCO-Pen*-N-T-7MeW-K(Ac)-Pen*-AEF-2Nal-THP-K(PEG2PEG2gETrxC20OH)-N-3Pya-Sar-CONH2] (Ac-[Pen]NT[Trp(7-Me)]K(Ac)[Pen][AEF][2Nal][Thp]K([AEEA-AEEA-γGlu-Trx-C20 diacid])N[3Pal][Sar]-NH2; disulfide 1-6) | 0.1 nM |
| CC(=O)NCCCC[C@@H]1NC(=O)[C@H](Cc2c[nH]c3c(C)cccc23)NC(=O)[C@H]([C@@H](C)O)NC(=O)[C@H](CCCCNC(=O)COCCOCCNC(=O)COCCOCCNC(=O)CC[C@H](NC(=O)CCCCCCCCCCCCCCCCC(=O)O)C(=O)O)NC(=O)[C@@H](NC(=O)[C@@H](CCCNC(=N)N)NC(C)=O)C(C)(C)SSC(C)(C)[C@@H](C(=O)N[C@@H](Cc2ccc(OCCN)cc2)C(=O)N[C@@H](Cc2ccc3ccccc3c2)C(=O)NC2(C(=O)N[C@@H](CCCCNC(C)=O)C(=O)N[C@@H](CC(N)=O)C(=O)N[C@@H](Cc3cccnc3)C(=O)N(C)CC(N)=O)CCOCC2)NC1=O [Example 50, MeCO-r-Pen*-K(PEG2PEG2gEC18OH)-T-7MeW-K(Ac)-Pen*-AEF-2Nal-THP-K(Ac)-N-3Pya-Sar-CONH2] (Ac-[dR][Pen]K([AEEA-AEEA-γGlu-C18 diacid])T[Trp(7-Me)]K(Ac)[Pen][AEF][2Nal][Thp]K(Ac)N[3Pal][Sar]-NH2; disulfide 2-7) | 0.1 nM |
| CC(=O)NCCCC[C@@H]1NC(=O)[C@H](Cc2c[nH]c3c(C)cccc23)NC(=O)[C@H]([C@@H](C)O)NC(=O)[C@H](CC(N)=O)NC(=O)[C@@H](NC(C)=O)C(C)(C)SSC(C)(C)[C@@H](C(=O)N[C@@H](Cc2ccc(OCCN)cc2)C(=O)N[C@@H](Cc2ccc3ccccc3c2)C(=O)NC2(C(=O)N[C@@H](CCCCNC(=O)[C@H](CNC(=O)CCCCCCCCCCCCCCC(=O)O)NC(=O)CCCCCCCCCCCCCCC(=O)O)C(=O)N[C@@H](CC(N)=O)C(=O)N[C@@H](Cc3cccnc3)C(=O)N(C)CC(N)=O)CCOCC2)NC1=O [Example 114, MeCO-Pen*-N-T-7MeW-K(Ac)-Pen*-AEF-2Nal-THP-K(DAP-(C16OH)2)-N-3Pya-Sar-CONH2] (Ac-[Pen]NT[Trp(7-Me)]K(Ac)[Pen][AEF][2Nal][Thp]K(X4)N[3Pal][Sar]-NH2; disulfide 1-6) | 0.15 nM |
| CC(=O)NCCCC[C@@H]1NC(=O)[C@H](Cc2c[nH]c3c(C)cccc23)NC(=O)[C@H]([C@@H](C)O)NC(=O)[C@H](CCCCNC(=O)CCOCCOCCOCCOCCOCCOCCNC(=O)CC[C@H](NC(=O)CCCCCCCCCCCCCCCCC(=O)O)C(=O)O)NC(=O)[C@@H](NC(=O)[C@@H](CCCNC(=N)N)NC(C)=O)C(C)(C)SSC(C)(C)[C@@H](C(=O)N[C@@H](Cc2ccc(OCCN)cc2)C(=O)N[C@@H](Cc2ccc3ccccc3c2)C(=O)NC2(C(=O)N[C@@H](CCCCNC(C)=O)C(=O)N[C@@H](CC(N)=O)C(=O)N[C@@H](Cc3cccnc3)C(=O)N(C)CC(N)=O)CCOCC2)NC1=O [Example 63, MeCO-r-Pen*-K(PEG6gEC18OH)-T-7MeW-K(Ac)-Pen*-AEF-2Nal-THP-K(Ac)-N-3Pya-Sar-CONH2] (Ac-[dR][Pen]K([PEG6-γGlu-C18 diacid])T[Trp(7-Me)]K(Ac)[Pen][AEF][2Nal][Thp]K(Ac)N[3Pal][Sar]-NH2; disulfide 2-7) | 0.13 nM |
